# Results taken from PubChem BioAssay AID743179 (NMMLSC, 2013).
# Calls of active or inactive are those of the source.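 Rule for the calls: active = at least 15% of cells MAC1 differentiation marker positive at top dose, with half-maximal concentration under 10 µM; inactive = the rest.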
# System: THP1 MAC1+ differentiation, flow cytometry, 4 days
# Experiment: myeloid differentiation promoters in THP1 cells, SAR follow-up, cell-based, MAC1 flow cytometry, set 1 (AID 743179)
# Details: not given
row,EC50 [µM],SMILES
1,3.09,O=C(CCNC(=O)c1ccc(Cl)cc1)N[C@@H]1CCCc2ccccc21
2,5.16,COc1ccc(C(=O)NCCC(=O)N[C@@H]2CCCc3ccccc32)cc1
3,4.28,O=C(CCNC(=O)c1ccc2c(c1)OC(F)(F)O2)N[C@@H]1CCCc2ccccc21
4,2.49,O=C(CCNC(=O)c1ccc(C(F)(F)F)cc1)N[C@@H]1CCCc2ccccc21
5,9.14,O=C(CCNC(=O)c1cccc(Cl)c1)N[C@@H]1CCCc2ccccc21
6,5.49,O=C(O)c1cccnc1Nc1ccc(Cl)cc1
7,2.07,O=C(CCNC(=O)c1ccc(OC(F)(F)F)cc1)N[C@@H]1CCCc2ccccc21
8,3.79,O=C(CCNC(=O)c1ccc(Cl)cc1)NC1CCCc2ccccc21 (stereo not given)

# System: not listed separately
# Experiment: as above
# Details: THP1 MAC1+ differentiation, flow cytometry, 4 days; at 10 µM (top of the series)
row,SMILES,"MAC1+ percent, differentiation"
1,CC(C)(C)OC(=O)NCCC(=O)N[C@@H]1CCCc2ccccc21,2% (inactive)
2,CC(NC(=O)C1CCCN(C(=O)c2ccc(Cl)cc2)C1)c1ccccc1 (stereo not given),6% (inactive)
3,CC(C)(C)OC(=O)NCCC(=O)N[C@H]1CCCc2ccccc21,2% (inactive)
4,O=C(CCCNC(=O)c1ccc(Cl)c(Cl)c1)N[C@@H]1CCCc2ccccc21,3% (inactive)
5,NCCC(=O)N[C@@H]1CCCc2ccccc21,1% (inactive)
6,O=C(Cc1ccc(Cl)cc1)NCCC(=O)N[C@@H]1CCCc2ccccc21,13% (inactive)
7,O=C(CNC(=O)c1ccc(OC(F)(F)F)cc1)N[C@@H]1CCCc2ccccc21,3% (inactive)
8,O=C(CNC(=O)c1ccc(Cl)cc1)N[C@@H]1CCCc2ccccc21,4% (inactive)
9,O=C(CCNC(=O)c1ccc(F)cc1)N[C@@H]1CCCc2ccccc21,46% (inactive)
10,O=C(CCNC(=O)c1ccccc1)N[C@@H]1CCCc2ccccc21,2% (inactive)
11,CC(NC(=O)CCNC(=O)c1ccc(Cl)cc1)c1ccc2c(c1)OCO2 (stereo not given),5% (inactive)
12,CC(c1ccccc1)N(C)C(=O)CCNC(=O)c1ccc(Cl)cc1 (stereo not given),7% (inactive)
13,O=C(CCNC(=O)c1ccc(Cl)cc1)N[C@H]1CCCc2ccccc21,7% (inactive)
14,Cc1ccc(C)c(OCCn2cc(C(=O)O)c3ccccc32)c1,2% (inactive)
15,O=C(CNC(=O)c1ccc(Cl)c(Cl)c1)N[C@@H]1CCCc2ccccc21,6% (inactive)
16,O=C(CCNC(=O)c1ccc(Cl)cc1)NC1CCCCC1,3% (inactive)

row,SMILES,"MAC1+ percent, differentiation"
1,Cc1ccc(C(=O)NCCC(=O)N[C@@H]2CCCc3ccccc32)cc1,97% (inactive)
2,CC(NC(=O)CCNC(=O)c1ccc(Cl)cc1)c1ccc(F)cc1 (stereo not given),6% (inactive)
3,N#Cc1ccc(C(=O)NCCC(=O)N[C@@H]2CCCc3ccccc32)cc1,17% (inactive)
4,O=C(CNC(=O)c1ccc(C(F)(F)F)cc1)N[C@@H]1CCCc2ccccc21,3% (inactive)
5,O=C(CCCNC(=O)c1ccc(OC(F)(F)F)cc1)N[C@@H]1CCCc2ccccc21,3% (inactive)
6,O=C(CCNC(=O)c1ccc(Cl)cc1)N[C@@H]1CCc2ccccc21,21% (inactive)
7,O=C(CCNC(=O)c1ccc(Cl)c(Cl)c1)N[C@@H]1CCCc2ccccc21,109% (inactive)
8,Cc1cccc(C(=O)NCCC(=O)NC2CCCc3ccccc32)c1 (stereo not given),4% (inactive)
9,O=C(NC1CCOc2ccccc21)C1CCCN(C(=O)c2ccc(Cl)cc2)C1 (stereo not given),5% (inactive)
10,O=C(CCCNC(=O)c1ccc(C(F)(F)F)cc1)N[C@@H]1CCCc2ccccc21,2% (inactive)
11,COc1ccccc1C(C)NC(=O)CCNC(=O)c1ccc(Cl)cc1 (stereo not given),-1% (inactive)
12,O=C(NC1CCc2ccccc21)C1CCCN(C(=O)c2ccc(Cl)cc2)C1 (stereo not given),4% (inactive)
13,O=C(O)c1ccccc1OCc1ccccc1Br,4% (inactive)
14,O=C(CCCNC(=O)c1ccc(Cl)cc1)N[C@@H]1CCCc2ccccc21,5% (inactive)
15,C[C@@H](NC(=O)CCNC(=O)c1ccc(Cl)cc1)c1ccccc1,5% (inactive)
16,CC(=O)NCCC(=O)N[C@@H]1CCCc2ccccc21,2% (inactive)
